These results are taken from PubChem BioAssay (NCI).

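Where inhibition never reached the appropriate level, the endpoint shown equals the highest concentration tested. Otherwise, values were interpolated linearly from a five-concentration, 48-hour dose response in 96-well plates. The concentration for 50% growth inhibition is given as GI50. At the TGI there is no net growth.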 Where only a bound is given, the exact number is not on record here.

Test systems include DU-145 prostate; HCC-2998 colon; EKVX NSCLC; PC-3 prostate; SR leukemia; OVCAR-8 ovarian; SN12C renal; NCI-H23 lung; CAKI-1 renal; HS 578T breast.
Test in all cases: NCI anticancer screen, dose series, 48 h

Turning to `COc1ccc2cc(C(C)C(=O)N3C(=O)OCC3(C)C)ccc2c1` (stereo not given), the TGI in the experiment on DU-145 prostate, in the experiment with HCC-2998 colon, with EKVX NSCLC, with PC-3 prostate, with SR leukemia and with OVCAR-8 ovarian was over 100 µM in each case. The TGI with SN12C renal and with NCI-H23 lung was over 100 µM throughout.

`COc1ccccc1C1C(C#N)=C(N)Oc2n[nH]c(C)c21` (stereo not given): the GI50 in the experiment with DU-145 prostate is over 100 µM; in the experiment on HCC-2998 colon it was over 100 µM; in the experiment on EKVX NSCLC, over 100 µM; in the experiment with CAKI-1 renal, over 100 µM; in the experiment on SR leukemia, 37.8 µM; in the experiment on HS 578T breast it was 27.8 µM. Besides, the GI50 in the experiment on OVCAR-8 ovarian was over 100 µM; in the experiment with SN12C renal, 14.8 µM; in the experiment on NCI-H23 lung, over 100 µM. The TGI with DU-145 prostate, in the experiment on HCC-2998 colon, in the experiment with EKVX NSCLC, in the experiment with CAKI-1 renal, with SR leukemia and in the experiment with HS 578T breast was over 100 µM in each case. For the same compound, the TGI with OVCAR-8 ovarian, with SN12C renal and in the experiment on NCI-H23 lung was over 100 µM in each case.

As to `N#Cc1c(N)nc2c3c1NC(=O)C(C(N)=O)C3c1ccccc1O2` (stereo not given), the TGI in the experiment on DU-145 prostate, in the experiment with HCC-2998 colon, in the experiment with EKVX NSCLC, in the experiment on CAKI-1 renal, in the experiment with PC-3 prostate and with SR leukemia was over 100 µM throughout. Moreover, the TGI with OVCAR-8 ovarian, with SN12C renal and in the experiment with NCI-H23 lung was over 100 µM each time.

On to `COc1ccc(Oc2ccccc2N)cc1`, for which the TGI with HCC-2998 colon is 57.1 µM; with EKVX NSCLC it was over 100 µM; in the experiment on SR leukemia it was over 100 µM; with OVCAR-8 ovarian, over 100 µM; in the experiment with SN12C renal, over 100 µM; in the experiment with NCI-H23 lung, over 100 µM.

With `CCOC(=O)C1=C(O)c2ccc(C)cc2C(=O)C1=O`, the TGI with HCC-2998 colon, in the experiment on EKVX NSCLC, with CAKI-1 renal, in the experiment on SR leukemia, in the experiment with OVCAR-8 ovarian and in the experiment with SN12C renal was over 100 µM in each case. This compound also showed a TGI in the experiment with NCI-H23 lung of 98.8 µM.

Take `O=C(N=Nc1ccccc1Cl)NNc1ccccc1Cl`: the TGI with DU-145 prostate was over 100 µM; in the experiment with HCC-2998 colon it was 94.1 µM; with CAKI-1 renal, over 100 µM; in the experiment on PC-3 prostate it was over 100 µM; in the experiment on SR leukemia, over 100 µM; with OVCAR-8 ovarian, 81.7 µM. The TGI in the experiment with SN12C renal and in the experiment with NCI-H23 lung was over 100 µM throughout.

Take `[N-]=[N+]=NCC(O)Cn1cnc2c(NC(=O)c3ccccc3)ncnc21` (stereo not given): the TGI with HCC-2998 colon, in the experiment with EKVX NSCLC, in the experiment on CAKI-1 renal, in the experiment with OVCAR-8 ovarian, in the experiment with SN12C renal and with NCI-H23 lung was over 100 µM throughout.

For the compound `C[C@H](C1CC2(C)OC2(C)C(=O)O1)[C@H]1CC[C@H]2[C@@H]3[C@@H]4O[C@@H]4[C@@]4(O)CC=CC(=O)[C@]4(C)[C@H]3CC[C@]12C` (stereo not given in full), the TGI in the experiment on DU-145 prostate, with HCC-2998 colon, in the experiment with EKVX NSCLC, in the experiment with CAKI-1 renal, with PC-3 prostate and in the experiment on OVCAR-8 ovarian was over 50 µM throughout. The TGI in the experiment with SN12C renal and with NCI-H23 lung was over 50 µM each time.

On to `Oc1ccc(Oc2cc3c(cc2Oc2ccc(O)cc2)-c2nc-3nc3[nH]c(nc4nc(nc5[nH]c(n2)c2cc(Oc6ccc(O)cc6)c(Oc6ccc(O)cc6)cc52)-c2cc(Oc5ccc(O)cc5)c(Oc5ccc(O)cc5)cc2-4)c2cc(Oc4ccc(O)cc4)c(Oc4ccc(O)cc4)cc32)cc1`, for which the TGI with HCC-2998 colon, in the experiment with EKVX NSCLC, with CAKI-1 renal, in the experiment with PC-3 prostate, with SR leukemia and in the experiment on HS 578T breast was over 100 µM in each case. The TGI in the experiment with OVCAR-8 ovarian, in the experiment on SN12C renal and in the experiment with NCI-H23 lung was over 100 µM in each case.

For `Nc1c(S(=O)(=O)O)cc(S(=O)(=O)O)c2ccc(N=Nc3ccc(/C=C/c4ccc(N=Nc5ccc6c(S(=O)(=O)O)cc(S(=O)(=O)O)c(N)c6c5O)cc4S(=O)(=O)O)c(S(=O)(=O)O)c3)c(O)c12`, the TGI in the experiment with HCC-2998 colon, with EKVX NSCLC, in the experiment on OVCAR-8 ovarian, in the experiment with SN12C renal and in the experiment with NCI-H23 lung was over 100 µM throughout.

As for `CC1(C)O[C@@H](C[C@]2(C#N)C[C@H](CCl)OC(C)(C)O2)C[C@@H](C#N)O1`, the TGI with HCC-2998 colon, with EKVX NSCLC, in the experiment with CAKI-1 renal, in the experiment on SR leukemia, with OVCAR-8 ovarian and in the experiment with SN12C renal was over 100 µM throughout. The compound further returned a TGI in the experiment with NCI-H23 lung of over 100 µM.

As to `CCSC1=CC2(O)N(CCc3ccc(OC)c(OC)c3)C(=O)CC2(C(=O)OC)CC1=O` (stereo not given), the TGI is 32.6 µM with DU-145 prostate; 36 µM in the experiment with HCC-2998 colon; over 100 µM in the experiment with EKVX NSCLC; over 100 µM with CAKI-1 renal; 35.5 µM in the experiment on PC-3 prostate; 58.6 µM with SR leukemia. Besides, the TGI stood at 31 µM in the experiment with OVCAR-8 ovarian, 36.3 µM in the experiment with SN12C renal and 33.2 µM in the experiment on NCI-H23 lung.

On to `N/C(=N\N=C\c1ncccc1O)NO`, for which the TGI in the experiment on HCC-2998 colon was over 100 µM; with EKVX NSCLC it was over 100 µM; with CAKI-1 renal it was 96.8 µM; in the experiment on OVCAR-8 ovarian, over 100 µM; in the experiment with SN12C renal, over 100 µM; with NCI-H23 lung, over 100 µM.

With `CSc1cnc2ccccc2c1Sc1c[nH]c2ccccc2c1=O`, the TGI was 29.5 µM with HCC-2998 colon; over 45.8 µM in the experiment with EKVX NSCLC; over 52 µM in the experiment with SR leukemia; 34.4 µM in the experiment on OVCAR-8 ovarian; 76.3 µM in the experiment on SN12C renal; 36.7 µM in the experiment on NCI-H23 lung.

As for `COc1cc(N(CCC#N)CCC#N)ccc1/C=N\NC(=O)c1ccc(C)cc1`, the TGI was over 100 µM with DU-145 prostate; over 100 µM in the experiment on EKVX NSCLC; over 100 µM in the experiment on CAKI-1 renal; 31.1 µM in the experiment with PC-3 prostate; over 100 µM in the experiment with HS 578T breast; over 100 µM in the experiment on OVCAR-8 ovarian. The TGI in the experiment on SN12C renal and with NCI-H23 lung was over 100 µM in each case.

With `COc1ccc(C)cc(=O)c1O`, the TGI in the experiment on EKVX NSCLC was over 100 µM; in the experiment with CAKI-1 renal it was over 100 µM; in the experiment with SR leukemia it was 38.6 µM; in the experiment on SN12C renal, over 100 µM; in the experiment with NCI-H23 lung, over 100 µM.
